Measurements as given in PubChem BioAssay (NCI).
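1) Cells in 96-well plates. 2) Compound, 48 h, 5 concentrations. 3) Linear interpolation between surrounding doses. 4) Unreached endpoint = highest concentration. Abbreviation: GI50, concentration required for 50% inhibition of growth. TGI is the concentration that stops growth completely.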

Assays:
Assay in all cases: growth of human tumour cells (NCI), 48 h
[1] = system: 786-0 renal
[2] = system: A498 renal
[3] = system: A549 NSCLC
[4] = system: ACHN renal
[5] = system: BT-549 breast
[6] = system: CAKI-1 renal
[7] = system: CCRF-CEM leukemia
[8] = system: COLO 205 colon
[9] = system: DU-145 prostate
[10] = system: EKVX NSCLC
[11] = system: HCC-2998 colon
[12] = system: HCT-116 colon
[13] = system: HCT-15 colon
[14] = system: HL-60(TB) leukemia
[15] = system: HOP-62 NSCLC
[16] = system: HOP-92 NSCLC
[17] = system: HS 578T breast
[18] = system: HT29 colon
[19] = system: IGROV1 ovarian
[20] = system: K-562 leukemia
[21] = system: KM12 colon
[22] = system: LOX IMVI melanoma
[23] = system: M14 melanoma
[24] = system: MALME-3M melanoma
[25] = system: MCF7 breast
[26] = system: MDA-MB-231 breast
[27] = system: MDA-MB-435
[28] = system: MOLT-4 leukemia
[29] = system: NCI-H226 lung
[30] = system: NCI-H460 lung
[31] = system: NCI-H522 lung
[32] = system: NCI/ADR-RES ovarian
[33] = system: OVCAR-3 ovarian
[34] = system: OVCAR-4 ovarian
[35] = system: OVCAR-5 ovarian
[36] = system: OVCAR-8 ovarian
[37] = system: PC-3 prostate
[38] = system: RPMI-8226 leukemia
[39] = system: RXF 393 renal
[40] = system: SF-268 CNS
[41] = system: SF-295 CNS
[42] = system: SF-539 CNS
[43] = system: SK-MEL-2 melanoma
[44] = system: SK-MEL-28 melanoma
[45] = system: SK-MEL-5 melanoma
[46] = system: SK-OV-3 ovarian
[47] = system: SN12C renal
[48] = system: SNB-19 CNS
[49] = system: SNB-75 CNS
[50] = system: SW-620 colon
[51] = system: T-47D breast
[52] = system: TK-10 renal
[53] = system: U251 CNS
[54] = system: UACC-257 melanoma
[55] = system: UACC-62 melanoma
[56] = system: UO-31 renal

SMILES: C#Cc1nc(C2=C(C)/C(=N/OCc3ccccc3)CC2)cs1
- GI50 [1]: 1.63 µM
- TGI [1]: 3.12 µM
- GI50 [2]: > 100 µM
- TGI [2]: > 100 µM
- GI50 [3]: 43.4 µM
- TGI [3]: > 100 µM
- GI50 [4]: 2.91 µM
- TGI [4]: > 100 µM
- GI50 [5]: 15.5 µM
- TGI [5]: 33.9 µM
- GI50 [6]: 32.6 µM
- TGI [6]: > 100 µM
- GI50 [7]: 3.28 µM
- TGI [7]: 15.6 µM
- GI50 [8]: > 100 µM
- TGI [8]: > 100 µM
- GI50 [9]: > 100 µM
- TGI [9]: > 100 µM
- GI50 [10]: > 100 µM
- TGI [10]: > 100 µM
- GI50 [11]: > 100 µM
- TGI [11]: > 100 µM
- GI50 [12]: 31.9 µM
- TGI [12]: > 100 µM
- GI50 [13]: 27.8 µM
- TGI [13]: > 100 µM
- GI50 [14]: 17.5 µM
- TGI [14]: 40.9 µM
- GI50 [15]: > 100 µM
- TGI [15]: > 100 µM
- GI50 [16]: 5.71 µM
- TGI [16]: 24.5 µM
- GI50 [17]: 71.4 µM
- TGI [17]: > 100 µM
- GI50 [18]: 31 µM
- TGI [18]: > 100 µM
- GI50 [19]: 1.97 µM
- TGI [19]: 4.29 µM
- GI50 [20]: 40.4 µM
- TGI [20]: > 100 µM
- GI50 [21]: > 100 µM
- TGI [21]: > 100 µM
- GI50 [22]: 0.199 µM
- TGI [22]: 0.444 µM
- GI50 [23]: 74.8 µM
- TGI [23]: > 100 µM
- GI50 [24]: 8.37 µM
- TGI [24]: 30.6 µM
- GI50 [25]: 21.6 µM
- TGI [25]: > 100 µM
- GI50 [26]: 32.2 µM
- TGI [26]: > 100 µM
- GI50 [27]: > 100 µM
- TGI [27]: > 100 µM
- GI50 [28]: 22.4 µM
- TGI [28]: 87.6 µM
- GI50 [29]: 13.5 µM
- TGI [29]: > 100 µM
- GI50 [30]: 44.2 µM
- TGI [30]: > 100 µM
- GI50 [31]: 5.23 µM
- TGI [31]: 23.3 µM
- GI50 [32]: 40.1 µM
- TGI [32]: > 100 µM
- GI50 [33]: > 100 µM
- TGI [33]: > 100 µM
- GI50 [34]: 50.9 µM
- TGI [34]: > 100 µM
- GI50 [35]: 11.7 µM
- TGI [35]: > 100 µM
- GI50 [36]: 47.8 µM
- TGI [36]: > 100 µM
- GI50 [37]: 36.8 µM
- TGI [37]: > 100 µM
- GI50 [38]: 5.74 µM
- TGI [38]: 38.3 µM
- GI50 [39]: 2.76 µM
- TGI [39]: 21.7 µM
- GI50 [40]: 34.7 µM
- TGI [40]: > 100 µM
- GI50 [41]: 4.76 µM
- TGI [41]: > 100 µM
- GI50 [42]: 1.67 µM
- TGI [42]: 3.07 µM
- GI50 [43]: 61.8 µM
- TGI [43]: > 100 µM
- GI50 [44]: 49.2 µM
- TGI [44]: > 100 µM
- GI50 [45]: 22.6 µM
- TGI [45]: > 100 µM
- GI50 [46]: 25.5 µM
- TGI [46]: 61.6 µM
- GI50 [47]: 19.9 µM
- TGI [47]: > 100 µM
- GI50 [48]: 57.1 µM
- TGI [48]: > 100 µM
- GI50 [49]: > 100 µM
- TGI [49]: > 100 µM
- GI50 [50]: 46.9 µM
- TGI [50]: > 100 µM
- GI50 [51]: 31 µM
- TGI [51]: > 100 µM
- GI50 [52]: > 100 µM
- TGI [52]: > 100 µM
- GI50 [53]: 50.1 µM
- TGI [53]: > 100 µM
- GI50 [54]: 78.5 µM
- TGI [54]: > 100 µM
- GI50 [55]: 37.2 µM
- TGI [55]: > 100 µM
- GI50 [56]: 0.405 µM
- TGI [56]: 1.49 µM
